The test system of assay [1] is Psudomonas aeruginosa 104. Description: Antimicrobial activity, agar dilution method (minimal inhibitory concentration). Format: cell-based. An excerpt: (§1) The antimicrobial activities of the compounds obtained in the above Examples determined by the standard test method (i.e. agar dilution method) as well as those of the following penicillins as disclosed in U.S. Pat. No. 3,433,784 are shown in Table 2: [drawing 59]

Another assay relates to Proteus vulgaris HX19. The description is as above. It is filed as cell-based.
Text: as §1

In another assay the test system is Pseudomonas. The note with it: prior art penicillins; cited from earlier work.
Another assay has as its system Proteus miravilis 2425. Nature of the assay: Antimicrobial activity, agar dilution method (minimal inhibitory concentration). It is filed as cell-based.
Text: as §1

For assay [2], the system named is Klebsiella pneumoniae 602. The assay is described as above. Format: cell-based.
Text: as §1

Assay [3] deals with Staphylococcus aureus 209P. Described as above. It is filed as cell-based.
Text: as §1

In a further assay the test system is Escherichia coli NIHJ. The assay is described as above. It is filed as cell-based.
Text: as §1

Each structure is given as a SMILES string. Values after ≈ are worked out from the molar mass of the structure shown.

Regarding `CC1(C)S[C@@H]2[C@H](NC(=O)C(C(=O)O)c3ccccc3)C(=O)N2[C@H]1C(=O)O` (stereo partly shown) [Carbenicillin, reference compound], the values for the MIC (in assay [1]; in the assay on Proteus vulgaris HX19) were 50 µg/mL (≈ 132 µM) and 0.78 µg/mL (≈ 2.06 µM), respectively. Also, the anti-Pseudomonas activity result with Pseudomonas is “not sufficiently strong”.

Regarding `CC(=O)Nc1ccc2ncc(C(=O)N[C@@H](C(=O)N[C@@H]3C(=O)N4[C@@H]3SC(C)(C)[C@@H]4C(=O)O)c3ccccc3)c(O)c2c1` [Example 17], the MIC in assay [1] amounted to 6.25 µg/mL (≈ 10.8 µM); with Proteus miravilis 2425 it was 3.13 µg/mL (≈ 5.42 µM); in assay [2], 3.13 µg/mL (≈ 5.42 µM); with Proteus vulgaris HX19 it was 0.1 µg/mL (≈ 0.173 µM); in assay [3] it was 0.78 µg/mL (≈ 1.35 µM); in the assay on Escherichia coli NIHJ it was 12.5 µg/mL (≈ 21.6 µM).

`Cc1ccc(C(=O)N[C@@H](C(=O)N[C@@H]2C(=O)N3[C@@H]2SC(C)(C)[C@@H]3C(=O)O)c2ccccc2)c(O)n1` [Example 13]: the MIC in assay [1] stood at 12.5 µg/mL (≈ 25.8 µM); in the assay with Proteus miravilis 2425 it was 12.5 µg/mL (≈ 25.8 µM); in assay [2], 25 µg/mL (≈ 51.6 µM); against Proteus vulgaris HX19 it was 0.2 µg/mL (≈ 0.413 µM); in assay [3], 0.39 µg/mL (≈ 0.805 µM); against Escherichia coli NIHJ, 12.5 µg/mL (≈ 25.8 µM).

As to `CC1(C)S[C@@H]2[C@H](NC(=O)[C@H](NC(=O)c3nnc4ccccc4c3O)c3ccccc3)C(=O)N2[C@H]1C(=O)O` [Example 4, D-α-(4-hydroxycinnoline-3-carbonamido)benzylpenicillin], the MIC turned out to be 12.5 µg/mL (≈ 24 µM) in assay [1]; 12.5 µg/mL (≈ 24 µM) with Proteus miravilis 2425; 12.5 µg/mL (≈ 24 µM) in assay [2]; 0.78 µg/mL (≈ 1.5 µM) in the assay with Proteus vulgaris HX19; 0.78 µg/mL (≈ 1.5 µM) in assay [3]; 12.5 µg/mL (≈ 24 µM) against Escherichia coli NIHJ.

For `CC1(C)S[C@@H]2[C@H](NC(=O)[C@H](NC(=O)c3cncnc3O)c3ccccc3)C(=O)N2[C@H]1C(=O)O` [Example 8], the MIC stood at 3.13 µg/mL (≈ 6.64 µM) in assay [1]; 12.5 µg/mL (≈ 26.5 µM) in the assay on Proteus miravilis 2425; 100 µg/mL (≈ 212 µM) in assay [2]; 0.05 µg/mL (≈ 0.106 µM) with Proteus vulgaris HX19; 0.39 µg/mL (≈ 0.827 µM) in assay [3]; 25 µg/mL (≈ 53 µM) with Escherichia coli NIHJ.

For the compound `CC1(C)S[C@@H]2[C@H](NC(=O)[C@H](NC(=O)c3cnc(O)nc3O)c3ccccc3)C(=O)N2[C@H]1C(=O)O` [Example 7], the MIC in assay [1] was 3.13 µg/mL (≈ 6.42 µM); against Proteus miravilis 2425 it was 6.25 µg/mL (≈ 12.8 µM); in assay [2] it was 25 µg/mL (≈ 51.3 µM); against Proteus vulgaris HX19, 0.05 µg/mL (≈ 0.103 µM); in assay [3], 0.39 µg/mL (≈ 0.8 µM); against Escherichia coli NIHJ, 12.5 µg/mL (≈ 25.6 µM).

Take `CC1(C)S[C@@H]2[C@H](NC(=O)C(c3ccccc3)S(=O)(=O)O)C(=O)N2[C@H]1C(=O)O` (stereo partly shown) [Sulfocillin]: in the assay with Pseudomonas, the anti-Pseudomonas activity entry is reported as “not sufficiently strong”.

As for `CC1(C)S[C@@H]2[C@H](NC(=O)[C@H](NC(=O)c3cnccc3O)c3ccc(O)cc3)C(=O)N2[C@H]1C(=O)O` [Example 18], the MIC in assay [1] was 3.13 µg/mL (≈ 6.43 µM); in the assay with Proteus miravilis 2425, 25 µg/mL (≈ 51.4 µM); in assay [2], 200 µg/mL (≈ 411 µM); against Proteus vulgaris HX19 it was 0.2 µg/mL (≈ 0.411 µM); in assay [3] it was 1.56 µg/mL (≈ 3.21 µM); against Escherichia coli NIHJ, 12.5 µg/mL (≈ 25.7 µM).

`CC1(C)S[C@@H]2[C@H](NC(=O)[C@H](NC(=O)c3nc4ccccc4nc3O)c3ccccc3)C(=O)N2[C@H]1C(=O)O` [Example 21]: the MIC in assay [1] was 1.56 µg/mL (≈ 2.99 µM); in the assay with Proteus miravilis 2425 it was 25 µg/mL (≈ 47.9 µM); in assay [2], 12.5 µg/mL (≈ 24 µM); in the assay with Proteus vulgaris HX19, 0.78 µg/mL (≈ 1.5 µM); in assay [3] it was 0.2 µg/mL (≈ 0.383 µM); with Escherichia coli NIHJ it was 6.25 µg/mL (≈ 12 µM).

The values above are taken from patent publication US4005075A, “Penicillins and their preparation” (Sumitomo Chemical Company, Limited, priority 1973, dated 1977).
